According to PubChem BioAssay (NCI):
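At the GI50, growth is halved. TGI marks complete inhibition of growth.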

Columns and labels:
Test in all cases: growth of human tumour cells (NCI), 384-well format
786-0 renal = tested on: 786-0 renal
A498 renal = tested on: A498 renal
A549 NSCLC = tested on: A549 NSCLC
ACHN renal = tested on: ACHN renal
BT-549 breast = tested on: BT-549 breast
CAKI-1 renal = tested on: CAKI-1 renal
CCRF-CEM leukemia = tested on: CCRF-CEM leukemia
COLO 205 colon = tested on: COLO 205 colon
DU-145 prostate = tested on: DU-145 prostate
EKVX NSCLC = tested on: EKVX NSCLC
HCC-2998 colon = tested on: HCC-2998 colon
HCT-116 colon = tested on: HCT-116 colon
HCT-15 colon = tested on: HCT-15 colon
HL-60(TB) leukemia = tested on: HL-60(TB) leukemia
HOP-62 NSCLC = tested on: HOP-62 NSCLC
HOP-92 NSCLC = tested on: HOP-92 NSCLC
HS 578T breast = tested on: HS 578T breast
HT29 colon = tested on: HT29 colon
IGROV1 ovarian = tested on: IGROV1 ovarian
KM12 colon = tested on: KM12 colon
LOX IMVI melanoma = tested on: LOX IMVI melanoma
M14 melanoma = tested on: M14 melanoma
MALME-3M melanoma = tested on: MALME-3M melanoma
MCF7 breast = tested on: MCF7 breast
MDA-MB-231 breast = tested on: MDA-MB-231 breast
MDA-MB-435 melanoma = tested on: MDA-MB-435 melanoma
MDA-MB-468 breast = tested on: MDA-MB-468 breast
MOLT-4 leukemia = tested on: MOLT-4 leukemia
NCI-H226 lung = tested on: NCI-H226 lung
NCI-H23 lung = tested on: NCI-H23 lung
NCI-H322M lung = tested on: NCI-H322M lung
NCI-H460 NSCLC = tested on: NCI-H460 NSCLC
NCI-H522 lung = tested on: NCI-H522 lung
NCI/ADR-RES ovarian = tested on: NCI/ADR-RES ovarian
OVCAR-3 ovarian = tested on: OVCAR-3 ovarian
OVCAR-4 ovarian = tested on: OVCAR-4 ovarian
OVCAR-5 ovarian = tested on: OVCAR-5 ovarian
OVCAR-8 ovarian = tested on: OVCAR-8 ovarian
PC-3 prostate = tested on: PC-3 prostate
RPMI-8226 leukemia = tested on: RPMI-8226 leukemia
RXF 393 renal = tested on: RXF 393 renal
SF-268 CNS = tested on: SF-268 CNS
SF-295 CNS = tested on: SF-295 CNS
SF-539 CNS = tested on: SF-539 CNS
SK-MEL-28 melanoma = tested on: SK-MEL-28 melanoma
SK-MEL-5 melanoma = tested on: SK-MEL-5 melanoma
SK-OV-3 ovarian = tested on: SK-OV-3 ovarian
SN12C renal = tested on: SN12C renal
SNB-19 CNS = tested on: SNB-19 CNS
SNB-75 CNS = tested on: SNB-75 CNS
SW-620 colon = tested on: SW-620 colon
T-47D breast = tested on: T-47D breast
TK-10 renal = tested on: TK-10 renal
U251 glioblastoma = tested on: U251 glioblastoma
UACC-257 melanoma = tested on: UACC-257 melanoma
UACC-62 melanoma = tested on: UACC-62 melanoma
UO-31 renal = tested on: UO-31 renal

Compound: COc1cc2ncnc(Oc3cccc(NC(=O)Nc4cc(C(C)(C)C(F)(F)F)on4)c3)c2cc1OC
- GI50 (786-0 renal): 1.52 µM
- TGI (786-0 renal): 3.77 µM
- GI50 (A498 renal): 0.81 µM
- TGI (A498 renal): 5.31 µM
- GI50 (A549 NSCLC): 1.26 µM
- TGI (A549 NSCLC): 5.57 µM
- GI50 (ACHN renal): 0.399 µM
- TGI (ACHN renal): 2.39 µM
- GI50 (BT-549 breast): 1.66 µM
- TGI (BT-549 breast): 3.08 µM
- GI50 (CAKI-1 renal): 0.613 µM
- TGI (CAKI-1 renal): 3.6 µM
- GI50 (CCRF-CEM leukemia): 1.45 µM
- TGI (CCRF-CEM leukemia): 2.77 µM
- GI50 (COLO 205 colon): 0.0481 µM
- TGI (COLO 205 colon): 1.59 µM
- GI50 (DU-145 prostate): 2.79 µM
- TGI (DU-145 prostate): 11 µM
- GI50 (EKVX NSCLC): 1.05 µM
- TGI (EKVX NSCLC): 3.29 µM
- GI50 (HCC-2998 colon): 1.23 µM
- TGI (HCC-2998 colon): 2.57 µM
- GI50 (HCT-116 colon): 0.581 µM
- TGI (HCT-116 colon): 1.97 µM
- GI50 (HCT-15 colon): 1.86 µM
- TGI (HCT-15 colon): 6.28 µM
- GI50 (HL-60(TB) leukemia): 0.309 µM
- TGI (HL-60(TB) leukemia): 1.75 µM
- GI50 (HOP-62 NSCLC): 1.53 µM
- TGI (HOP-62 NSCLC): 3.01 µM
- GI50 (HOP-92 NSCLC): 1.26 µM
- TGI (HOP-92 NSCLC): 2.55 µM
- GI50 (HS 578T breast): 1.54 µM
- TGI (HS 578T breast): 2.99 µM
- GI50 (HT29 colon): 0.174 µM
- TGI (HT29 colon): 1.65 µM
- GI50 (IGROV1 ovarian): 0.222 µM
- TGI (IGROV1 ovarian): 1.27 µM
- GI50 (KM12 colon): 1.92 µM
- TGI (KM12 colon): 4.43 µM
- GI50 (LOX IMVI melanoma): 0.187 µM
- TGI (LOX IMVI melanoma): 1.02 µM
- GI50 (M14 melanoma): 0.0193 µM
- TGI (M14 melanoma): 0.214 µM
- GI50 (MALME-3M melanoma): 0.0146 µM
- TGI (MALME-3M melanoma): 0.0693 µM
- GI50 (MCF7 breast): 1.97 µM
- TGI (MCF7 breast): 7.65 µM
- GI50 (MDA-MB-231 breast): 0.192 µM
- TGI (MDA-MB-231 breast): 3.98 µM
- GI50 (MDA-MB-435 melanoma): 0.118 µM
- TGI (MDA-MB-435 melanoma): 1.94 µM
- GI50 (MDA-MB-468 breast): 0.747 µM
- TGI (MDA-MB-468 breast): 2.31 µM
- GI50 (MOLT-4 leukemia): 1.11 µM
- TGI (MOLT-4 leukemia): 2.31 µM
- GI50 (NCI-H226 lung): 0.384 µM
- TGI (NCI-H226 lung): 7.55 µM
- GI50 (NCI-H23 lung): 0.168 µM
- TGI (NCI-H23 lung): 1.47 µM
- GI50 (NCI-H322M lung): 0.865 µM
- TGI (NCI-H322M lung): 5.18 µM
- GI50 (NCI-H460 NSCLC): 1.54 µM
- TGI (NCI-H460 NSCLC): 4.46 µM
- GI50 (NCI-H522 lung): 0.242 µM
- TGI (NCI-H522 lung): 1.61 µM
- GI50 (NCI/ADR-RES ovarian): 2.03 µM
- TGI (NCI/ADR-RES ovarian): 4.78 µM
- GI50 (OVCAR-3 ovarian): 1.75 µM
- TGI (OVCAR-3 ovarian): 4.6 µM
- GI50 (OVCAR-4 ovarian): 3.14 µM
- TGI (OVCAR-4 ovarian): 12.4 µM
- GI50 (OVCAR-5 ovarian): 1.08 µM
- TGI (OVCAR-5 ovarian): 4.57 µM
- GI50 (OVCAR-8 ovarian): 2.3 µM
- TGI (OVCAR-8 ovarian): 9.64 µM
- GI50 (PC-3 prostate): 2.51 µM
- TGI (PC-3 prostate): 5.73 µM
- GI50 (RPMI-8226 leukemia): 1.76 µM
- TGI (RPMI-8226 leukemia): 3.14 µM
- GI50 (RXF 393 renal): 1.54 µM
- TGI (RXF 393 renal): 3.44 µM
- GI50 (SF-268 CNS): 0.216 µM
- TGI (SF-268 CNS): 1.1 µM
- GI50 (SF-295 CNS): 2.06 µM
- TGI (SF-295 CNS): 4.52 µM
- GI50 (SF-539 CNS): 1.35 µM
- TGI (SF-539 CNS): 2.78 µM
- GI50 (SK-MEL-28 melanoma): 0.0351 µM
- TGI (SK-MEL-28 melanoma): 0.541 µM
- GI50 (SK-MEL-5 melanoma): 0.206 µM
- TGI (SK-MEL-5 melanoma): 1.72 µM
- GI50 (SK-OV-3 ovarian): 0.871 µM
- TGI (SK-OV-3 ovarian): 3.14 µM
- GI50 (SN12C renal): 0.85 µM
- TGI (SN12C renal): 3.28 µM
- GI50 (SNB-19 CNS): 4.2 µM
- TGI (SNB-19 CNS): 14 µM
- GI50 (SNB-75 CNS): 1.86 µM
- TGI (SNB-75 CNS): 3.95 µM
- GI50 (SW-620 colon): 1.18 µM
- TGI (SW-620 colon): 3.67 µM
- GI50 (T-47D breast): 1.11 µM
- TGI (T-47D breast): 3.44 µM
- GI50 (TK-10 renal): 1.69 µM
- TGI (TK-10 renal): 4.03 µM
- GI50 (U251 glioblastoma): 1.67 µM
- TGI (U251 glioblastoma): 3.17 µM
- GI50 (UACC-257 melanoma): 0.0575 µM
- TGI (UACC-257 melanoma): 0.667 µM
- GI50 (UACC-62 melanoma): 0.0178 µM
- TGI (UACC-62 melanoma): 0.267 µM
- GI50 (UO-31 renal): 0.976 µM
- TGI (UO-31 renal): 3.15 µM
